# Measured values: patent US10995068B2, “Synthetic sphingolipid-like molecules, drugs, methods of their synthesis and methods of treatment” (The Regents of the University of California, priority 2015, dated 2021)
# Like-named read-outs stand apart in the source and are kept apart here.
# Tests used:
# [1] = Lymphocyte sequestration in mice; type: in vivo, C57BL6 mice; settings: 10 mg/kg intraperitoneally, blood after 12 h, compared to saline
# Excerpt: (§1) In more exemplary embodiments, compounds 5 and 5-P were further examined for their ability to activate multiple S1P receptors in vivo. In particular, mouse heart rate and lymphocyte sequestration were examined. Mouse heart rate decreases causing bradycardia when S1P receptor 3 is activated while in humans this effect may be mediated by S1P receptor 1. In both mice and humans, lymphocytes are sequestered when the S1P receptor 1 is activated.
# Lymphocyte sequestration: Female 8-24 week old C57BL6 mice are injected intraperitoneally with vehicle (0.9% saline or 20% acidified DMSO in 0.9% saline), 10 mg/kg FTY720, FTY720-phosphate, 5, or 5-P. After 12 h, blood is collected from the retro-orbital sinus under ketamine/xylazine anesthesia. 10 μL of whole blood is added to 190 μL of ACK red blood cell lysis buffer, incubated at room temperature for 3-5 minutes […], and the white blood cells recovered by centrifugation. Nucleated cells (Hoechst33342 positive) are counted using a hemocytometer to obtain the white blood cell count. Separately, 50 μL of whole blood is added to 1 mL of ACK red blood cell lysis buffer and incubated for 3-5 minutes at room temperature. Cells are washed with FACS wash (2% FCS in PBS with 0.05% NaN3) and red blood cell lysis repeated. Tubes are decanted and resuspended in 100 μL of FACS block (10% FCS in PBS with 0.05% NaN3) with directly conjugated antibodies recognizing B220, CD4, or CD8 (all from Biolegend, San Diego) for 30 min on ice. Cells are analyzed on a BD LSR II flow cytometer; the analysis is restricted to live cells (DAPI negative). These experiments are performed in accordance with all national or local guidelines and regulations and are approved by the UCI Institutional Animal Care and Use Committee.
# [2] = Heart rate by ECG telemetry in mice; type: in vivo, C57BL/6 mice; settings: single dose 10 mg/kg intraperitoneally
# Excerpt: as §1
# As shown in the telemetry readings detailed in FIG. 36, FTY720 (B) slowed heart rate comparison to compound 5 (C) and the control (A, saline). As shown in A, after administering saline, normal sinus rhythm with clearly discernible P waves, representing atrial depolarization, and QRS complexes, representing ventricular depolarization, at regular intervals is observed. The heart rate in this tracing was approximately 600 beats per minute (BPM). […] Finally, as shown in C, for exemplary embodiment compound 5, similar to the saline injection, normal sinus rhythm with well-defined and consistent P waves and QRS complexes were present following injection. The heart rate in this tracing was approximately 600 BPM, similar to saline.
# Heart rate: C57BL/6 mice are surgically implanted with DSI TA-ETAF20 electrocardiographic telemetry devices (Data Sciences International, St. Paul, Minn.). The electrocardiographic data is collected and recorded using the PhysioTel telemetry system and Dataquest A.R.T 4.0 software (DSI). The telemetry device is implanted in the mouse's abdominal cavity with biopotential leads sutured in place in the chest wall. Buprenorphine (0.05 mg/kg) is administered every 12 h after surgery for pain management and enrofloxacin (3 mg/kg) is administered 2× per day for 7 days post-surgery as an antibiotic. Mice are permitted two weeks recovery after surgery before initiation of baseline telemetry recordings. Heart rate is calculated from ECG data taken in the freely moving, conscious mice. Mice are divided into two groups of 3 mice and treated intraperitoneally with a single dose of vehicle (0.9% saline or 20% acidified DMSO in 0.9% saline), 10 mg/kg FTY720, FTY720-Phosphate, 5, or 5-P and heart rate monitored continuously for 10 h. Mice are rested for two weeks at which point the experiment is repeated with the mice assigned to the alternate group. These experiments are performed in accordance with all national or local guidelines and regulations and were approved by the UCI Institutional Animal Care and Use Committee.
# [3] = tested on: PC3 prostate cancer cells; experiment: Cell Titer Glo proliferation assay in PC3; type: cell-based, human; settings: Cell Titer Glo, 72 h, Mean ± SEM, n ≥ 3, read-out: IC50 values in prostate cancer cell lines, PC3
# Experimental: (§2) Previously presented compounds 1-4 (FIG. 23), compounds 5-8 (FIG. 28), and control compound FTY720 (FIG. 2) were used to treat the well-established PC3 and DU145 prostate cancer lines (FIG. 29 and Table 1). A Cell Titer Glo assay was performed to measure proliferation of the cancer lines.
# (§3) Cell culture studies: Sup-B15 cells are maintained at 2-3 million/mL in RPMI 1640 (Mediatech) supplemented with 10% fetal calf serum (FCS, Sigma-Aldrich), 10 mM Hepes (Mediatech), 55 μM β-mercaptoethanol (Sigma-Aldrich), 2 mM L-glutamine (Mediatech), and antibiotics. All adherent cells are maintained at 70-80% confluence. Cell are cultured in the following media: PC3 & A549, Ham's F12K (Corning Cell Gro) supplemented with 10% FCS and antibiotics; DU145 cells, MEM (Corning Cell Gro) supplemented with 10% FCS, 1 mM sodium pyruvate (Mediatech), and antibiotics; SW620 & MDA-MB-231, DMEM (Corning Cell Gro) with 10% FCS, 1 mM sodium pyruvate (Mediatech), and antibiotics; Panc-1 cells, DMEM (Corning Cell Gro) supplemented with 10% FCS and antibiotics. All of the above cell lines are available from the ATCC.
# (§4) Viability assays: Cell Titer Glo assays (Cell Titer Glo Luminescent Cell Viability Assay kit, cat #G7571, Promega Corporation) are performed in clear bottom 96-well black cell culture plates (cat #655090, Greiner Bio-One, NC, USA). After plating at 1,000 cells/well in volume of 100 μl, cells are left undisturbed for at least 24 h before drug addition. After 72 h, cells are prepared for analysis by adding 10 μl of 0.1% Triton-X100 in PBS with shaking for 1 min at room temperature (RT). Cell Titer-Glo cell lysis reagent (20 μl) is then added followed by 1 min of shaking and a 10 min incubation in the dark at RT. Luminescence is detected using an IVIS imaging system (IVIS Lumina II, Perkin Elmer, USA). […] IC50s are determined using GraphPad Prism (GraphPad Software, Inc, La Jolla, Calif.). SupB-15 viability was determined by flow cytometry. Cell Titer Glo assays were performed with the other cell lines.
# [4] = biological target: T1, S1P receptor 2 (Homo sapiens, UniProt O95136); experiment: S1P receptor activation in CHO cells, S1P2; type: cell-based; settings: CHO cells over-expressing human S1P2
# T1 construct: expressed in transfected cells
# Excerpt: (§5) Phosphorylation may have effects on S1P receptor activity that could cause bradycardia. Bradycardia, the dose-limiting toxicity that prevents the use of FTY720 in cancer patients, stems from FTY720-P's actions on S1P receptors 1 and 3. (Camm, J., et al. (2014) Am. Heart J. 168, 632-644; Cohen, J. A., Chun, J. (2011) Ann. Neurol. 69, 759-777; Sanna, M. G., et al. (2004) J. Biol. Chem. 279, 13839-13848; the disclosures of which are incorporated herein by reference). Phosphorylation by sphingosine kinase may make compounds competent to activate S1P receptors. FTY720, for example, when phosphorylated is known to activate S1P receptors 1 and 3. Because compound 5 could be phosphorylated, the activity of compound 5 and its phosphate 5-P (FIG. 28) on S1P receptors was evaluated (FIG. 32).
# (§6) 51P1-5 activation: Chinese hamster ovary (CHO) cells stably over-expressing the different human 51P receptor subtypes are used. S1P1, S1P4 and S1P5 overexpressing CHO cells are cultured in medium containing alpha-MEM supplemented with 10% FBS, 50 μg/ml gentamycin and 0.5 mg/ml G418. S1P2 and S1P3 overexpressing CHO cells are cultured in RPMI containing 10% FBS, 50 μg/ml gentamycin and 0.5 mg/ml G418. Prior to stimulation, cells are rendered serum-free for 24 h. Stimulation is carried out for 10 min in serum-free DMEM containing 0.1 mg/ml of fatty-acid free BSA in the absence or presence of the various compounds or 51P. Protein lysates are prepared using a buffer containing (50 mM Tris pH 7.4, 150 mM NaCl, 10% glycerol, 1% Triton X-100, 2 mM EDTA, 2 mM EGTA, 40 mM β-glycerophosphate, 50 mM sodium fluoride, 10 mM sodium pyrophosphate, 2 mM dithiothreitol, 0.2 mM sodium orthovanadate). Cells are homogenized by one 5 sec burst in a MSE Ultrasonic Disintegrator, centrifuged and taken for protein determination. Equal amounts of protein are separated by SDS-PAGE (10% polyacrylamide gel), transferred to nitrocellulose membranes and subjected to Western blot analysis. Bands were stained using IRDye® secondary antibodies and visualized by the LICOR Odyssey® Fc Imaging system. Antibodies against phospho-Thr202/Tyr204-p42/p44-MAPK and phospho-Ser PKC substrate are from Cell Signaling, Frankfurt am Main, Germany. Polyclonal antisera against total p42 and total p44 were generated and characterized as previously described. (Huwiler, A.; Pfeilschifter, J. Br. J. Pharmacol. 1994, 113, 1455-1463; disclosure of which is incorporated herein by reference).
# [5] = biological target: T2, S1P receptor 1 (Homo sapiens, UniProt P21453); experiment: S1P receptor activation in CHO cells, S1P1; type: cell-based; settings: CHO cells over-expressing human S1P1, 10 min stimulation, Western blot
# T2 construct: expressed in transfected cells
# Excerpt: as §5, §6
# [6] = biological target: T3, S1P receptor 5 (Homo sapiens, UniProt Q9H228); experiment: S1P receptor activation in CHO cells, S1P5; type: cell-based; settings: CHO cells over-expressing human S1P5
# T3 construct: expressed in transfected cells
# Excerpt: as §5, §6
# [7] = biological target: T4, S1P receptor 3 (Homo sapiens, UniProt Q99500); experiment: S1P receptor activation in CHO cells, S1P3; type: cell-based; settings: CHO cells over-expressing human S1P3
# T4 construct: expressed in transfected cells
# Excerpt: as §5, §6
# [8] = tested on: DU145 prostate cancer cells; experiment: Cell Titer Glo proliferation assay in DU145; type: cell-based, human; settings: Mean ± SEM, n ≥ 3, read-out: IC50 values in prostate cancer cell lines, DU145
# Experimental: as §2, §3, §4
# [9] = biological target: T5, S1P receptor 4 (Homo sapiens, UniProt O95977); experiment: S1P receptor activation in CHO cells, S1P4; type: cell-based; settings: CHO cells over-expressing human S1P4
# T5 construct: expressed in transfected cells
# T5 sequence (O95977 1-384): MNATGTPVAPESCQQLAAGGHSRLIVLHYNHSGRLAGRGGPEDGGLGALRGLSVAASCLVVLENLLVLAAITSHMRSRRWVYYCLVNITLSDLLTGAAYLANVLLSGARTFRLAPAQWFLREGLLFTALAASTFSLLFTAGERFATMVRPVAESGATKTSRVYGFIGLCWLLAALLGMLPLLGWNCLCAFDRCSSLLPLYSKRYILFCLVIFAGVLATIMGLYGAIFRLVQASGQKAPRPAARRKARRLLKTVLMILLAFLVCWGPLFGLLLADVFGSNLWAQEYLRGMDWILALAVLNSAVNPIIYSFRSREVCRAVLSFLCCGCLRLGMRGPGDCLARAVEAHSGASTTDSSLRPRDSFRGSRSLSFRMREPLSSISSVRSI
# Excerpt: as §5, §6
# [10] = tested on: PC3 prostate cancer cells; experiment: Cell viability by vital dye exclusion and flow cytometry in PC3; type: cell-based, human; settings: Homo sapiens; vital dye exclusion (DAPI) and flow cytometry, 72 h
# Experimental: Thus, to determine whether analogues in accordance with embodiments of the invention are cytotoxic, studies were conducted using vital dye exclusion and flow cytometry (Table 2).
# as §4
# T1 sequence (O95136 whole entry): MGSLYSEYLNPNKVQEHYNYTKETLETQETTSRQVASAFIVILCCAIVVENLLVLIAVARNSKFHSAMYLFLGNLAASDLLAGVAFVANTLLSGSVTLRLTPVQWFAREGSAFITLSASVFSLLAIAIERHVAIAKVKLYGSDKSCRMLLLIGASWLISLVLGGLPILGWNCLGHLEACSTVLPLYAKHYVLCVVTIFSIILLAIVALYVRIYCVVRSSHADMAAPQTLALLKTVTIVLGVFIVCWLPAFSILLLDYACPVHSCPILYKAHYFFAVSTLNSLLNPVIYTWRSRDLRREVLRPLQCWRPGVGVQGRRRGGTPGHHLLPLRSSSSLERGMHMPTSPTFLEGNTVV
# T3 sequence (Q9H228 whole entry): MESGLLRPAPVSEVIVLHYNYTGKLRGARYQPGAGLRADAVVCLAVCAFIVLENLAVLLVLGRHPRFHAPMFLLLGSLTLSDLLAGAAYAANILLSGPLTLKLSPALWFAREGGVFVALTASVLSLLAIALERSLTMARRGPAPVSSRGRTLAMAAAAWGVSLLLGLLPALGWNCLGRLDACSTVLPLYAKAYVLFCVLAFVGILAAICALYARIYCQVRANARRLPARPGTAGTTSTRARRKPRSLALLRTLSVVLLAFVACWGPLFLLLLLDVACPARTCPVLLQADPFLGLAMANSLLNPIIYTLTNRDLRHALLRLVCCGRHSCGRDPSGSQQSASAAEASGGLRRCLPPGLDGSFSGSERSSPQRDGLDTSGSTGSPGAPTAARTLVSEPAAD
# T4 sequence (Q99500 whole entry): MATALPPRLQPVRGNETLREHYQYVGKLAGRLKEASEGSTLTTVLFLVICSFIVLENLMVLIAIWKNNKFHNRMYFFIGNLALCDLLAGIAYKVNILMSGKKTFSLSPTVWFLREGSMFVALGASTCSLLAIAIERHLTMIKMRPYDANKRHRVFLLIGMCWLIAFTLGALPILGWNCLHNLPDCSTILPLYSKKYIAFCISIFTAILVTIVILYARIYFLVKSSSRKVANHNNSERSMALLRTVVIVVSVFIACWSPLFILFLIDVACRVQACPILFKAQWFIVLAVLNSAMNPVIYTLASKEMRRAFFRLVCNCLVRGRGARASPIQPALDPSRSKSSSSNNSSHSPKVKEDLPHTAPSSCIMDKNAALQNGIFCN
# T2 sequence (P21453 whole entry): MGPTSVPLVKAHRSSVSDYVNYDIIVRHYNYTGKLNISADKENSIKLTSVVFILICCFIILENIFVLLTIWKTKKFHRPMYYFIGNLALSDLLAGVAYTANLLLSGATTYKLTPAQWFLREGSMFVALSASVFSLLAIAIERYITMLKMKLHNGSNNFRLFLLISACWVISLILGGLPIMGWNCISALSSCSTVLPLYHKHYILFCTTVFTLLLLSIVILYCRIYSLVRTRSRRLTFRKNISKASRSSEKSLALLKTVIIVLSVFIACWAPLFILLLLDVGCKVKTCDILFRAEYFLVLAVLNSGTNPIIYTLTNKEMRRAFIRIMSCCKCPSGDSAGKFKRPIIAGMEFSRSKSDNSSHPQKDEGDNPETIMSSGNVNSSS
SMILES,lymphocyte sequestration [1],decrease of heart rate ([2]; compared to saline vehicle),IC50 [3] [µM],activation of S1P receptor 2 [4],activation of S1P receptor 1 [5],activation of S1P receptor 5 [6],activation of S1P receptor 3 [7],IC50 ([8]; 72 h) [µM],activation of S1P receptor 4 [9],IC50 ([3]; Homo sapiens) [µM],"IC50 ([8]; Homo sapiens, DU-145, 72 h) [µM]",IC50 [10] [µM],effect on heart rate ([2]; compared to saline controls)
"CCCCCCCCc1ccc(CC[C@](N)(CO)COP(=O)(O)O)cc1 [FTY720-P, reference compound]",significantly sequestered lymphocytes,approximately 50%,–,–,–,–,–,–,–,–,–,–,–
CCCCCCCCc1ccc([C@@H]2CCN[C@H]2C)cc1.Cl [Compound 12],–,–,4.1 ± 0.4,not able to activate,not able to activate,not able to activate,not able to activate,5 ± 0.1,not able to activate,–,–,–,–
"CCCCCCCCCCCCC/C=C/[C@@H](O)[C@@H](N)COP(=O)(O)O [Compound S1P, sphingosine-1 phosphate, reference compound]",–,–,–,activated,activated,activated,activated,–,activated,–,–,–,–
"CCCCCCCCc1ccc([C@H]2C[C@H](CO)N[C@H]2CO)cc1 [Compound 3, (2R,3R,5R)-2,5-Bis(hydroxymethyl)-3-(4-octylphenyl)pyrrolidinium chloride]",–,–,–,–,–,–,–,–,–,4.9 ± 0.6,5.3 ± 0.2,8.3 ± 0.2,–
"CCCCCCCCc1ccc([C@H]2CCN[C@@H]2COP(=O)(O)O)cc1 [Compound 5-P, ((2S,3R)-3-(4-octylphenyl)pyrrolidin-1-ium-2-yl)Methyl hydrogen phosphate]",no significant effect,–,–,failed to activate,weakly activated,failed to activate,failed to activate,–,failed to activate,–,–,–,no significant effect
